Reference: patent publication US20220152077A1 (THE UNIVERSITY OF WARWICK, priority 2019, published 2022)
“Also recorded” adds a separate entry of the source.

Experiments:
Goa = assay type: cell-based, human; settings: PTX-treated cells
Procedure: (§1) Cells were then incubated for 24 hours before addition of 100 ng/ml PTX, to inhibit activity of endogenous Gαi/o, and then incubated for a further 16-18 hours. Transfected cells were then assayed as per cAMP inhibition experiments, but co-stimulated with agonist and 100 nM forskolin.
(§2) Data Analysis. […] Statistical significance was tested as indicated in the text using paired or unpaired t-tests or one-way or two-way ANOVAs with repeated measures (RM) as appropriate. Bonferroni corrections for multiple comparisons were performed. All in vitro cell signalling assay data was analysed using Prism 7.0e (Graphpad software, San Diego, Calif.), with all concentration-response curves being fitted using a 3 parameter logistic equation to calculate response range and IC50. All cAMP data was normalised to a forskolin concentration-response curve ran in parallel to each assay. […] Radioligand displacement curves were fitted to the one-site competition binding equation yielding log Ki values. […] To determine the extent of ligand-induced recruitment of β-arrestin2-YFP to either the A1R or A3R, the BRET signal was calculated by subtracting the 530 nm/450 nm emission for vehicle-treated cells from ligand-treated cells (ligand-induced ΔBRET). ΔBRET for each concentration at 5 minutes (maximum response) was used to produce concentration-response curves.

human (h) A1R = target: T1, human (h) A1R (Homo sapiens, UniProt P30542); assay: Radioligand binding, [3H]DPCPX, membranes of CHO-K1-hA1R cells; settings: displacement of [3H]DPCPX
T1 sequence (P30542 1-326): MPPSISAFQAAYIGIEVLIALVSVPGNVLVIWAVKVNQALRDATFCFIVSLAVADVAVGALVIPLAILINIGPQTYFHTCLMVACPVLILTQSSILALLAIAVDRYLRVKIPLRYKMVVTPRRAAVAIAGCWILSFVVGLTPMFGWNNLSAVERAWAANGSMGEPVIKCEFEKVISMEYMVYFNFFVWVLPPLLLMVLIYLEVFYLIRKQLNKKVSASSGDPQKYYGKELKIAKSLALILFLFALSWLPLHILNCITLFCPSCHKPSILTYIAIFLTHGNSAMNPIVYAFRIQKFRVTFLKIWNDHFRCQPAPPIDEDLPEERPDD
Procedure: Radioligand binding. Radioligand displacement assays were conducted using crude membrane preparations (100 μg protein per tube) acquired from homogenisation of CHO-K1-hA1R cells in ice-cold buffer (2 mM MgCl2, 20 mM HEPES, pH 7.4). […] Non-specific binding was determined in the presence of 10 μM DPCPX. […] Free radioligand was separated from bound radioligand by filtration through Whatman® glass microfiber GF/B 25 mm filters (Sigma-Aldrich). Each filter was then placed in a Sterilin™ scintillation vial and radioactivity determined by: addition of 4 mL of Ultima Gold XR liquid scintillant (PerkinElmer), overnight incubation at room temperature and the retained radioactivity determined using a Beckman Coulter LS 6500 Multi-purpose scintillation counter (Beckman Coulter Inc.; Indiana, USA).
Data Analysis. […] Statistical significance was tested as indicated in the text using paired or unpaired t-tests or one-way or two-way ANOVAs with repeated measures (RM) as appropriate. Bonferroni corrections for multiple comparisons were performed. All in vitro cell signalling assay data was analysed using Prism 7.0e (Graphpad software, San Diego, Calif.), with all concentration-response curves being fitted using a 3 parameter logistic equation to calculate response range and IC50. All cAMP data was normalised to a forskolin concentration-response curve ran in parallel to each assay. […]

[1] = test system: seizure activity induced in hippocampal slices; assay: Seizure model in hippocampal slices (no added Mg2+, 6 mM K+ aCSF); assay type: cell-based, rat; settings: adenosine 20-100 μM, NECA 300 nM, CPA 300 nM, BnOCPA 300 nM to 1 μM
Procedure: (§3) Preparation of hippocampal slices: Sagittal slices of hippocampus (300-400 μm) were prepared from male Sprague Dawley rats, at postnatal days 12 to 20. Rats were kept on a 12-hour light-dark cycle with slices made 90 minutes after entering the light cycle. […] The brain was removed, cut down the mid line and the two sides of the brain stuck down to a metal base plate. […] Slices were stored at 34° C. for 1 to 6 hours in aCSF (1 mM MgCl2, 2 mM CaCl2) before use.
Seizure model: Seizure activity was induced in hippocampal slices using aCSF which contained no added Mg^2+ and with the total K^+ concentration increased to 6 mM with KCl. Removal of extracellular Mg^2+ facilitates NMDA receptor activation producing long lasting EPSPS, which can sum together to produce tonic activation. Increasing the extracellular concentration of K^+ depolarises neurons leading to firing and release of glutamate to sustain activity. Both the increase in K^+ concentration and removal of Mg^2+ are required to produce spontaneous activity in hippocampal slices. Spontaneous activity was measured with an aCSF-filled microelectrode placed within stratum radiatum in CA1.

human A1R = target: T2, human A1R (Homo sapiens, UniProt P30542); assay: BRET assay for β-arrestin2 recruitment in HEK 293 cells; assay type: cell-based; settings: data not shown
T2 sequence (P30542 1-326): T1 sequence (P30542 1-326)
Procedure: as §2

[2] = test system: membrane potential of pyramidal cells; assay: Whole cell current clamp recording of membrane potential, CA1 pyramidal cells; assay type: cell-based, rat
Procedure: as §3
Whole cell patch clamp recording from hippocampal pyramidal cells: A slice was transferred to the recording chamber and perfused at 3 mL/min with aCSF at 32±0.5° C. Slices were visualised using IR-DIC optics with an Olympus BX151W microscope (Scientifica) and a CCD camera (Hitachi). […] Voltage and current recordings were obtained using an Axon Multiclamp 700B amplifier (Molecular Devices, USA) and digitised at 20 KHz. Data acquisition and analysis was performed using Pclamp 10 (Molecular Devices). For voltage clamp experiments, CA1 pyramidal cells were held at −60 mV. Peptides to interfere with G protein signalling were introduced via the patch pipette into the recorded cell.

[3] = test system: urethane-anaesthetised, spontaneously breathing adult rats; assay: In vivo anaesthetised rat preparation, heart rate and mean arterial blood pressure; settings: IV; adenosine 1 mg·kg^−1, BnOCPA 10 μg·kg^−1, CPA 420 ng·kg^−1
Gob = assay: cAMP accumulation in PTX-pre-treated CHO-K1-hA1R cells transfected with PTX-insensitive Gob; assay type: cell-based, human
Procedure: as §1, §2

[4] = test system: synaptic transmission in the hippocampus; assay: Extracellular fEPSP recording in hippocampal slices (synaptic transmission); assay type: cell-based, rat; settings: rat hippocampal slices, CA1; read-out: IC50, inhibition of synaptic transmission (fEPSP slope)
Procedure: as §3
Extracellular recording: A slice was transferred to the recording chamber, submerged in aCSF and perfused at 4 to 6 mL/min (32° C.). The slice was placed on a grid allowing perfusion above and below the tissue and all tubing was gas tight (to prevent loss of oxygen). For extracellular recording, an aCSF filled microelectrode was placed on the surface of stratum radiatum in CA1. […] For fEPSPs a 10 to 20 minute baseline was recorded at a stimulus intensity that gave 40 to 50% of the maximal response. […] For fEPSP slope, a 1 ms linear region after the fibre volley was measured. Extracellular recordings were made independently on two electrophysiology rigs.
Statistical significance was tested using the unpaired t-test and one-way and two-way ANOVAs with Bonferroni correction for multiple comparisons.
as §2

[5] = test system: urethane-anaesthetised, spontaneously breathing adult rats; assay: In vivo anaesthetised rat preparation, respiration
From the text: In vivo anaesthetised rat preparation for cardiorespiratory recordings: Anaesthesia was induced in adult male Sprague Dawley rats (230-330 g) with isofluorane (2-4%; Piramal Healthcare). The femoral vein was catheterised for drug delivery. Anaesthesia was maintained with urethane (1.2-1.7 g/kg; Sigma) in sterile saline delivered via the femoral catheter. The femoral artery was catheterised and connected to a pressure transducer (Digitimer) to record arterial blood pressure. […] The rats were then allowed to stabilise before the experiments began. […] Arterial blood pressure recordings were used to derive heart rate (HR: beats·minute^−1; BPM), and to calculate mean arterial blood pressure (MAP: Diastolic pressure+⅓*[Systolic Pressure−Diastolic pressure]). Airflow measurements were used to calculate: tidal volume (VT; mL; pressure sensors were calibrated with a 3 mL syringe), and respiratory frequency (f; breaths·min-1; BrPM). Minute ventilation (VE; mL·min-1) was calculated as f×VT.
Adult male Sprague Dawley rats (400-500 g) were anaesthetised with urethane and instrumented as described above, with the exception that the arterial cannulation was not performed.
After a 20 minutes recovery period CPA (6.3 μg·kg^−1) was administered. All injections were administered IV as a 350 μl·kg^−1 bolus. Changes in f, VT, and VE were measured. If the dosing occurred close to a respiratory event such as a sigh a second IV dose was administered, with 20 minute recovery periods either side of the injection.
One-way ANOVAs, with repeated measures as appropriate, and with Bonferroni correction for multiple comparisons were used. Statistical significance for the effects of IV saline was tested using paired t-tests. Data are reported throughout as mean±SEM and n values are reported for each experiment. […] The significance level was set at P<0.05, with actual P values reported in the figure legends and summaries, by way of abbreviations and asterisks, on the graphs: ns, not significant; * P<0.05; **, P<0.02; ***, P<0.001; ****, P<0.0001.

isolated frog heart = assay: Frog heart preparation, heart rate; parameters: species or system Xenopus leavis; settings: adenosine 30 μM, BnOCPA 300 nM
Procedure: Frog heart preparation: Xenopus […] frogs (young adult males) were supplied from Portsmouth Xenopus Resource Centre. Frogs were euthanized with MS222 (0.2% at a pH of 7), decapitated and pithed. The animals were dissected to reveal the heart and the pericardium carefully removed. Heart contractions were measured with a force transducer (AD instruments). Heart rate was acquired via a PowerLab […] (AD instruments) controlled by LabChart 7 (AD instruments). The heart was regularly washed with ringer and drugs were applied directly to the heart.

[6] = test system: synaptic transmission in spinal nociceptive afferents; assay: Dorsal root afferent-evoked EPSPs in dorsal horn neurones, rat spinal cord slices; assay type: cell-based; settings: rat lumbar spinal cord slices, 0.1 Hz
Procedure: Spinal cord slice preparation: Adult male Sprague-Dawley rats, aged 8-12 weeks (260-280 g), were housed in an air-conditioned room on a 12 hour light/dark cycle with food and water available ad libitum. Rats were terminally anaesthetized using isofluorane and decapitated. […] A laminectomy was performed and the spinal cord and associated roots gently dissected and teased out of the spinal column and surrounding tissues. Dura and pia mater and ventral roots were subsequently removed with fine forceps and the spinal cord hemisected. Care was taken to ensure dorsal root inputs to the spinal cord were maintained. The hemisected spinal cord-dorsal root preparations were secured to a tissue slicer and spinal cord slices (400-450 μm thick) with dorsal roots attached cut in chilled (<4° C.) high sucrose aCSF using a Leica VT1000s microtome. Slices were transferred to a small beaker containing ice-cold standard aCSF (see below) and rapidly warmed to 35±1° C. in a temperature-controlled water bath over a 20 minute period, then subsequently removed and maintained at room temperature (22±2° C.) prior to electrophysiological recording.
Spinal cord electrophysiological recording: For electrophysiological recording, a spinal cord slice was transferred to a custom-built chamber. […]

[7] = IV bolus, BnOCPA 8.3 ug/kg, CPA 6.3 μg·kg^−1

OC[C@H]1O[C@@H](n2cnc3c(NC4CCCC4)ncnc32)[C@H](O)[C@@H]1O [CPA, N-Cyclopentyladenosine]
activation of / coupling to Goa (Goa): coupled to a range of Gi/o subunits, and in particular Goa | binding affinity at the A1R (comparison) (human (h) A1R): equal affinity | effect on seizure activity [1]: completely suppressed neuronal firing; also recorded: abolished seizure activity | β-arrestin recruitment at the A1R (human A1R): no β-arrestin recruitment | mean hyperpolarisation by CPA in the presence of BnOCPA ([2]; CPA 300 nM after BnOCPA 300 nM, 10 minutes): 2.7±2 mV | membrane potential after agonist ([2]; adenosine 100 μM, CPA 300 nM): −71.3±1.4 mV | mean change of membrane potential (hyperpolarisation) ([2]; adenosine 100 μM, CPA 300 nM, BnOCPA 300 nM-1 μM): −7.3±0.85 mV | effect on membrane potential ([2]; example traces, CA1 pyramidal cells): hyperpolarised the membrane potential | change of HR [3]: about 50% | heart rate (HR) after injection [3]: 207±29 BPM | mean arterial blood pressure (MAP) after injection [3]: 51±5 mmHg | inhibition of cAMP accumulation via Gob (Gob): inhibit cAMP accumulation through coupling to Gob | IC50 [4]: 11.8 ± 2.7 nM | minute ventilation (VE) after injection [5, 7]: 99 ± 19 mL/min | respiratory frequency (f) after injection [5, 7]: 108±10 BrPM | tidal volume (VT) after injection [5, 7]: 0.8 ± 0.1 mL | effect on respiration ([5]; intravenous injection): caused significant respiratory depression | effect on isolated frog heart rate (isolated frog heart): reduced the isolated frog heart rate similar to adenosine | reduction / change of heart rate (isolated frog heart; CPA): 6.2±0.5 BPM | effect on dorsal root afferent-evoked EPSPs [6]: significant reduction in amplitude of the EPSPs in CPA, comparable to that of BnOCPA
